The subject of one data set is C. albicans [DSM 11225]. The data set can be described thus: MIC assay, C. albicans DSM 11225. The data set is classed as cell-based, Candida albicans. The following applies: tested 250–2 µg/mL. As for the experimental part:
(§1) The MICs of rubiginosin- and rutilin-type azaphilones—in detail, Rub A, C, W, Z, and Rut A and B—were determined as described previously using the selected pathogens C. albicans [DSM 11225, DSM 1665], C. albicans CAI-4 HWP1-lacZ [ZK3379] and C. auris [DSM 21092] (see Table S1 for detailed information). All compounds were tested within the concentration range of 250 µg/mL–2 µg/mL for C. albicans [DSM 11225, DSM 1665], C. albicans CAI-4 HWP1-lacZ [ZK3379], C. auris [DSM 21092]. […]
(§2) All compounds were fully dissolved in
(§3) The assay was conducted as a minimum inhibitory concentration (MIC) assay in 96-well round-bottom microtiter plates using the parameters summarized in table S1 and as already described in [2]. Stocks of the test organisms were generated by growing the organisms overnight in 250 mL (Candida albicans [DSM 11225], [DSM 1665], CAI-4 HWP1-lacZ, Candida auris [DSM 21092]) or 50 mL shaking (the rest organisms) flasks filled with 25 mL of the growth medium at 140 rpm (for media and temperatures see table S1). After incubation overnight, the OD of the suspension was measured and adjusted by diluting with the respective growth medium. OD600 nm was adjusted to 0.01 for bacteria and OD600 nm to 0.1 for fungi and 150 μL of the adjusted suspensions were added to all wells of a 96-well microtiter plate (one test organism per plate). Subsequently, additional 130 μL (1 mg/mL tested compounds) or 142.5 μL (10 mg/mL tested compounds ) of suspensions, plus 20 μL (1 mg/mL tested compounds) respectively 7.5 μL (10 mg/mL tested compounds ) of the test compounds were added to first row. C ontrols (one compound/column) were added as well: MeOH were used as solvent control, while different positive controls (reference drugs ) were used for the according test organisms (see table S1). Starting from row A, 150 μL of the suspension were transferred […]
(§4) to the next row, the contents thoroughly mixed, and 150 μL transferred to the following row. The remaining 150 μL after row H were discarded.
(§5) 66.7 μg/mL in row A to 0.52 μg/mL in row H (1 mg/mL tested compounds) or 250 μg/mL in row A to 2 μg/mL in row H (10 mg/mL tested compounds).
(§6) The 96-well microtiter plates were then incubated overnight on a microplate shaker at 800 rpm at 30 or 37 °C (see table S1) and were visually evaluated the next day. The MIC is defined as the lowest concentration where no growth of the test organism was observed. A lower MIC thus corresponds to a higher antimicrobial activity […]
(§7) Table S1: MIC assay experiment parameters.
(§8) Tested organisms Strain No. Growth Incubation Positive control medium temp. [°C ] (reference)
(§9) KB-3-1 (ACC 158) cervix carcinoma as well as L929 (ACC 2) mouse fibroblasts were cultured under standard cell culture conditions (37 °C, 5% CO2, 95% humidified atmosphere). The cells were maintained in high glucose DMEM containing 10% fetal bovine serum and 100 U/mL penicillin and streptomycin (Gibco, Thermo Fisher Scientific, Waltham, USA). Cell lines were serially passaged after trypsinization, using 0.05% trypsin / 0.02% EDTA solution. The cultures were routinely monitored for potential contamination, and only mycoplasma free cultures were used. The test compounds were investigated for their anti-proliferative effect on cell lines, using the 3-(4,5-dimethylthiazol-2-yl)-2,5-diphenyltetrazolium bromide (MTT) based cell viability assay. […]

For data set [1], the system named is C. albicans CAI-4 HWP1-lacZ [ZK3379]. The data set is described as follows: MIC assay, C. albicans CAI-4 HWP1-lacZ. The following applies: tested 250–2 µg/mL. In kind it is cell-based, Candida albicans. As for the experimental part: as §1, §2, §3, §4, §5, §6, §7, §8, §9
In a further data set the test system is C. auris [DSM 21092]. The data set is described as follows: MIC assay, C. auris. The data set is classed as cell-based, Candida auris. The following applies: tested 250–2 µg/mL. The method, then: as §1, §2, §3, §4, §5, §6, §7, §8, §9
The test system of the next data set is C. auris biofilm. The data set can be described thus: Crystal violet biofilm formation assay, C. auris. The following applies: for effect on formation of C. auris biofilms: CV assay, 24 h treatment; for inhibition at 2 µg/mL / inhibition at 3.9 µg/mL / inhibition at 7.8 µg/mL / inhibition at 15.6 µg/mL / inhibition at 31.3 µg/mL / inhibition at 62.5 µg/mL / inhibition at 125 µg/mL / inhibition at 250 µg/mL: Candidozyma auris, read-out: inhibition of C. auris biofilm formation compared to solvent control (= 0%). The data set is classed as cell-based, Candida auris. As for the experimental part: (§10) The fungal pathogens C. auris [[…]] or C. albicans [DSM 11225] were cultured from stock in 25 mL YPD medium in a 250 mL flask (30 °C, 100 rpm, 18 h). The turbidity of the broth was measured at 280 nm using a spectrophotometer (Nanodrop 2000c, Thermo Fisher Scientific, Waltham, MA, USA) and diluted to match the turbidity of a 0.5 McFarland standard in RPMI 1640 medium (Gibco, New York, NY, USA; Thermo Fisher Scientific), supplemented with […] 3-(N-morpholino)propanesulfonic acid (MOPS, Carl Roth, Karlsruhe, Germany) for C. auris, or 0.05 McFarland standard in RPMI 1640 medium in the case of C. albicans. Subsequently, 150 μL of the fungal dispersion were added into each well of a 96-well microtiter plate (Falcon no. 351172, Thermo Fisher Scientific) and further incubated (37 °C, 150 rpm, 2 h [C. auris] or 90 min [C. albicans]). The supernatant was discarded and the plate was rinsed one time by using a PBS buffer. Afterwards, azaphilones (Rub A, C, W, Z, and Rut A and B) were serially diluted in 150 μL in fresh medium to concentrations of 250–2 μg/mL (Rub C for C. auris: 250–0.02 μg/mL). Methanol (2.5%) was used as a solvent control and both, nystatin (NYS; Thermo Fisher Scientific) and farnesol (FA; Sigma Aldrich, St. Louis, MO, USA) as positive controls (250–2 μg/mL) for C. auris and C. albicans, respectively. Plates were further incubated (37 °C, 150 rpm, 24 h). The supernatant was discarded and biofilms were washed with PBS, stained by adding 150 μL of the crystal violet (CV; Sigma Aldrich) solution (0.1%), and incubated (room temperature, 25 min). Afterwards, the plates were washed twice with PBS buffer. A total of 150 μL ethanol (95%) were applied to dissolve the biofilm-bound CV. The absorbance was measured by a plate reader (Synergy 2, BioTek, Santa Clara, CA, USA) at 570 nm for C. auris or 610 nm for C. albicans. Error bars indicate SD with duplicates in two biological repeats.

In another data set the test system is C. albicans [DSM 1665]. On the set-up: method as in doi:10.1002/ejoc.202001661. The following applies: highest tested concentration 250 µg/mL; cited from earlier work.
Data set [2] has as its system human endocervical adenocarcinoma KB-3-1 [ACC 158] cells. The following applies: cited from earlier work.
In data set [3] the test system is mouse fibroblasts L929 [ACC 2]. The following applies: cited from earlier work.
For data set [4], the system named is murine fibroblasts (L929) and human endocervical adenocarcinoma cells (KB-3-1). Also on record: method as in doi:10.1002/ejoc.202001661. The following applies: range over Rub A and Rub Z and over both cell lines; cited from earlier work.
For data set [5], the system named is C. albicans [DSM 11225] biofilm. The data set is described as follows: Crystal violet biofilm formation assay, C. albicans. In kind it is cell-based, Candida albicans. The following applies: CV assay, 24 h treatment. As for the experimental part:
as §10, with “Methanol (2.5%) was used as a solvent control and both, nystatin (NYS; Thermo Fisher Scientific) and farnesol (FA; Sigma Aldrich, St. Louis, MO, USA) as positive controls (250–2 μg/mL) for C. auris and C. albicans, respectively. Plates were further incubated (37 °C, 150 rpm, 24 h). The supernatant was discarded and biofilms were washed with PBS, stained by adding 150 μL of the crystal violet (CV; Sigma Aldrich) solution (0.1%), and incubated (room temperature, 25 min). Afterwards, the plates were washed twice with PBS buffer. A total of 150 μL ethanol (95%) were applied to dissolve the biofilm-bound CV.” left out, “Error bars indicate SD with duplicates in two biological repeats.” left out

On the set-up of data set [6]: method as in PMID 15921417. The following applies: OA alone; cited from earlier work.

A word on the inhibition: it is how much of the control response was suppressed. As usually defined, the IC50 is the point on the concentration scale where inhibition reaches its midpoint.

As to `CC(=O)OC/C=C/C1=CC2=C(CO1)C(=O)[C@@](C)(OC(=O)c1c(C)cc(O)cc1O)[C@@H](O)C2` [Rub Z, rubiginosin Z], the MIC entry against C. albicans [DSM 11225] is “no antimicrobial activity”. The MIC result in data set [1] is reported as “no antimicrobial activity”. Also, in the data set on C. auris [DSM 21092], the MIC result was “no antimicrobial activity”. In the data set on C. auris biofilm, the “effect on formation of C. auris biofilms” value is on record as “did not affect the formation”, the inhibition at 2 µg/mL was less than 20%, the inhibition at 3.9 µg/mL was less than 20% and the inhibition at 7.8 µg/mL is less than 20%. Moreover, in the data set on C. auris biofilm, the inhibition at 15.6 µg/mL was less than 20%, the inhibition at 31.3 µg/mL was less than 20%, the inhibition at 62.5 µg/mL is less than 20% and the inhibition at 125 µg/mL is less than 20%. Further, in the data set with C. auris biofilm, the inhibition at 250 µg/mL was less than 20%. The MIC result in the data set on C. albicans [DSM 1665] is “no antimicrobial activity”. Besides, the IC50 in data set [2] was 5.2 µM. Besides, the concentration for half-maximal inhibition (IC50) in data set [3] was 4.7 µM. In [4], the IC50 values between was 2.6 to 4.5 µg/mL.
Turning to `CC(=O)OC/C=C/C1=CC2=C(CO1)C(=O)[C@@](C)(O)[C@@H](OC(=O)c1c(C)cc(O)cc1O)C2` [Rub A, rubiginosin A], the MIC entry in the data set with C. albicans [DSM 11225] was “no antimicrobial activity”. The MIC entry in data set [1] is “no antimicrobial activity”. For the same compound, the MIC entry against C. auris [DSM 21092] was “no antimicrobial activity”. Further, in the data set with C. auris biofilm, the “effect on formation of C. auris biofilms” value was “did not affect the formation”, the inhibition at 2 µg/mL was less than 20%, the inhibition at 3.9 µg/mL is less than 20% and the inhibition at 7.8 µg/mL is less than 20%. In the data set on C. auris biofilm, the inhibition at 15.6 µg/mL was less than 20%, the inhibition at 31.3 µg/mL is less than 20%, the inhibition at 62.5 µg/mL was less than 20% and the inhibition at 125 µg/mL was less than 20%. The inhibition at 250 µg/mL in the data set on C. auris biofilm is less than 20%. Moreover, in [5], the “concentration above which significant effects on C. albicans biofilm formation start” value is recorded as “above 31.3 µg/mL”. For the same compound, the MIC entry with C. albicans [DSM 1665] is on record as “no antimicrobial activity”. Moreover, the concentration for half-maximal inhibition (IC50) in data set [2] is 5.2 µM. In addition, the half-inhibitory concentration (IC50) in data set [3] was 3.2 µM. Moreover, the IC50 values between in data set [4] was 2.6 to 4.5 µg/mL.
`Cc1cc(O)cc(O)c1C(=O)O` [OA, orsellinic acid]: the cytotoxicity entry in data set [6] is on record as “no cytotoxicity”.
